# Columns and labels:
# [1] = test system: RAC1-GTP levels in MDA-MB-468 Luc cells; experiment: RAC-GTP immunofluorescence; assay type: cell-based
# Method: Luciferase (Luc, green) was used to detect the cells. […] (C) Quantification of colony number of indicated cancer cell lines in the presence of A41 (10 μM) expressed as the percentage of control in the absence of A41. […] (D) Immunoblot analysis and corresponding quantification of AKT and P44/42 expression and phosphorylation (pAKT, p44/42) in MDA-MB-468 Luc cells in the absence (−) and presence of NSC23766 or A41 (1 h at 10^−5 M). […] (E) 3D invasion assay of MDA-MB-468 Luc and cancer-associated fibroblasts (CAFs) and corresponding quantification (scale bars: 200 μm).
# After indicated treatments, cells were fixed with 4% paraformaldehyde and permeabilized in PBS 0.5% Triton X-100. To assess RAC1 activity, cells were then incubated with RAC-GTP antibody (26903, NewEast Biosciences, King of Prussia, Pa) (dilution 1/500) overnight at room temperature, followed by secondary Alexa 568-labeled anti-mouse antibody (dilution 1/1000). Cancer cells were detected with firefly luciferase antibody (ab21176, Abcam) (dilution 1/500) overnight at room temperature, followed by secondary Alexa 488-labeled anti-rabbit antibody (dilution 1/1000). To assess cytoskeleton organization, cells were incubated with Alexa Fluor 488 phalloidin (A12379, Invitrogen) to visualize F-actin. After staining, cells were mounted in Prolong gold antifade reagent with DAPI and images were captured by a fluorescence microscope.
# MDA-MB-468 Luc cells = experiment: Focus formation (clonogenic) assay; assay type: cell-based
# Method: Figure 5 A41 decreases growth and invasiveness of TNBC cells in vitro (A) Representative images of RAC-GTP levels (red) in MDA-MB-468 Luc cells in the absence (CTL) and presence of EHT1864, NSC23766, or A41 (1 h at 10 μM) (left). Luciferase (Luc, green) was used to detect the cells. RAC-GTP mean fluorescence intensity was quantified inside the cell area (right) (n = 31–37 cells from 3 independent experiments; ∗p < 0.05, ∗∗∗p < 0.001) (scale bars: 10 μm). […] (C) Quantification of colony number of indicated cancer cell lines in the presence of A41 (10 μM) expressed as the percentage of control in the absence of A41. Results shown are representative of N > 3 independent experiments. (D) Immunoblot analysis and corresponding quantification of AKT and P44/42 expression and phosphorylation (pAKT, p44/42) in MDA-MB-468 Luc cells in the absence (−) and presence of NSC23766 or A41 (1 h at 10^−5 M). Results shown are representative of 3 independent experiments. ∗∗p < 0.01 vs. untreated cells, ^###p < 0.001 vs. NSC23766-treated cells. (E) 3D invasion assay of MDA-MB-468 Luc and cancer-associated fibroblasts (CAFs) and corresponding quantification (scale bars: 200 μm). […]
# 1000 cells/well from the indicated cancer cell lines were seeded in 6-wells plates and allowed to grow 2 days before treatments. […] The area occupied by the cells was then quantified with ImageJ software.
# Phosphodiesterase PDE3 = experiment: Safety screen; assay type: biochemical, human
# Method: (§1) Blood cell counts, kinase profiler, safety screen, bacterial cytotoxicity, Ames, micronucleus assays were performed by the company Eurofins (France).
# Adenosine A2A = Adenosine A2A (Homo sapiens, UniProt P29274); experiment: Safety screen; assay type: binding
# Method: (§2) The kinase profiler was performed by the company Eurofins (Discovery, Panlab and Cerep).
# Dopamine D1 = Dopamine D1 (Homo sapiens, UniProt P21728); experiment: Safety screen; assay type: binding
# Method: as §1
# Muscarinic M2 = Muscarinic M2 (Homo sapiens, UniProt P08172); experiment: Safety screen; assay type: binding
# Method: as §1
# CLK4(h) = CLK4(h) (Homo sapiens, UniProt Q9HAZ1); experiment: Kinase Profiler; assay type: biochemical
# Method: as §2
# DDR2(h) = DDR2(h) (Homo sapiens, UniProt Q16832); experiment: Kinase Profiler; assay type: biochemical
# Method: (§3) Blood cell counts, kinase profiler, safety screen, bacterial cytotoxicity, Ames, micronucleus assays were performed by the company Eurofins (France). The kinase profiler was performed by the company Eurofins (Discovery, Panlab and Cerep).
# Flt4(h) = Flt4(h) (Homo sapiens, UniProt P35916); experiment: Kinase Profiler; assay type: biochemical
# Method: as §2
# GSK3β(h) = GSK3β(h) (Homo sapiens, UniProt P49841); experiment: Kinase Profiler; assay type: biochemical
# Method: as §3
# MAP4K5(h) = MAP4K5(h) (Homo sapiens, UniProt Q9Y4K4); experiment: Kinase Profiler; assay type: biochemical
# Method: as §2
# MLK1(h) = MLK1(h) (Homo sapiens, UniProt P80192); experiment: Kinase Profiler; assay type: biochemical
# Method: as §3
# SGK2(h) = SGK2(h) (Homo sapiens, UniProt Q9HBY8); experiment: Kinase Profiler; assay type: biochemical
# Method: as §2
# SIK3(h) = SIK3(h) (Homo sapiens, UniProt Q9Y2K2); experiment: Kinase Profiler; assay type: biochemical
# Method: as §2
# PI3K (p110b/p85a)(m) = PI3K (p110b/p85a)(m) (Mus musculus, UniProt Q8BTI9); experiment: Kinase Profiler; assay type: biochemical
# Method: as §3
# PIP4K2a(h) = PIP4K2a(h) (Homo sapiens, UniProt P48426); experiment: Kinase Profiler; assay type: biochemical
# Method: as §2
# PIP5K1g(h) = PIP5K1g(h) (Homo sapiens, UniProt O60331); experiment: Kinase Profiler; assay type: biochemical
# Method: as §3
# Dopamine D1, sequence (P21728 whole entry): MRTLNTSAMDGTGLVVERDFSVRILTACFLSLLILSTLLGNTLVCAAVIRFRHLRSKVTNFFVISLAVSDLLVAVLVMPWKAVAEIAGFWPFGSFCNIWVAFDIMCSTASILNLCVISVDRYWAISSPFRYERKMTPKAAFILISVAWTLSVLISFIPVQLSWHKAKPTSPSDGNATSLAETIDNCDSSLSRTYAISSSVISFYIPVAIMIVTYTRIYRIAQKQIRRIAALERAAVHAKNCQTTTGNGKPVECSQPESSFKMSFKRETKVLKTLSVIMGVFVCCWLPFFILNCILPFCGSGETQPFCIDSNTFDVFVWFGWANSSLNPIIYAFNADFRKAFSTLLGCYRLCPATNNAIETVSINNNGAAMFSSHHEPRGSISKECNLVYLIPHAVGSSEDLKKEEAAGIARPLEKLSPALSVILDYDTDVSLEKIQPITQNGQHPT
# Adenosine A2A, sequence (P29274 whole entry): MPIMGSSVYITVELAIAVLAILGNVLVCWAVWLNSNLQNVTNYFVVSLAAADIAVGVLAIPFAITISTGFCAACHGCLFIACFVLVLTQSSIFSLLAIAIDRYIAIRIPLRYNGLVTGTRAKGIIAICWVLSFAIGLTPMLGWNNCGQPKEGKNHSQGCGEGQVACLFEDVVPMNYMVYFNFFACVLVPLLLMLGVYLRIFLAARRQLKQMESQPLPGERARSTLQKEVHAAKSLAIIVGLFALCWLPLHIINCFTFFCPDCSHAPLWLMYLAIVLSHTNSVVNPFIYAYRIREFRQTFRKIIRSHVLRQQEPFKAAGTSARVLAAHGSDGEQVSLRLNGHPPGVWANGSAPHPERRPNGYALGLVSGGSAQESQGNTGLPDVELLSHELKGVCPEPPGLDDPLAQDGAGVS
# DDR2(h), sequence (Q16832 22-855): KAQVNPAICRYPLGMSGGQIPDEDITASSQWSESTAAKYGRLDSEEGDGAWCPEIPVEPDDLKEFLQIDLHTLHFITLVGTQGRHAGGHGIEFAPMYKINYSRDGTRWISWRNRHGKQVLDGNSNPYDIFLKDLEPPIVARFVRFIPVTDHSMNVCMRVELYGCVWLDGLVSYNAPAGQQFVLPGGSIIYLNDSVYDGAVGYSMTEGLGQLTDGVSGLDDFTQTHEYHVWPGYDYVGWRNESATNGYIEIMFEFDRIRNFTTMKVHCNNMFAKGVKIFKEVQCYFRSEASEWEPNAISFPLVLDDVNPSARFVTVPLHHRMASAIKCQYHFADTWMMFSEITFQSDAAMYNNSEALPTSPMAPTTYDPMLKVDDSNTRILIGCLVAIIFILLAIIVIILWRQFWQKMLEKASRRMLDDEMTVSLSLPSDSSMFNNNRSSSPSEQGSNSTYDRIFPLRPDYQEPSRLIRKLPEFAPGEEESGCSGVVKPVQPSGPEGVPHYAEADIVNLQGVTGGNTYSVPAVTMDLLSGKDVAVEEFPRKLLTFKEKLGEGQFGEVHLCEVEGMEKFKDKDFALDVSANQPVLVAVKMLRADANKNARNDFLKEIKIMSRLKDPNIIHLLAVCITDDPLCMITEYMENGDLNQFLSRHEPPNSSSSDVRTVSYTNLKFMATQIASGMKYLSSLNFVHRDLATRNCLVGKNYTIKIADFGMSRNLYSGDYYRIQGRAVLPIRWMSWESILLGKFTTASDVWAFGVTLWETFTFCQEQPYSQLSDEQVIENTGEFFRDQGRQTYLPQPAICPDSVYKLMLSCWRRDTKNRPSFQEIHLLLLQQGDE
# SGK2(h), sequence (Q9HBY8 whole entry): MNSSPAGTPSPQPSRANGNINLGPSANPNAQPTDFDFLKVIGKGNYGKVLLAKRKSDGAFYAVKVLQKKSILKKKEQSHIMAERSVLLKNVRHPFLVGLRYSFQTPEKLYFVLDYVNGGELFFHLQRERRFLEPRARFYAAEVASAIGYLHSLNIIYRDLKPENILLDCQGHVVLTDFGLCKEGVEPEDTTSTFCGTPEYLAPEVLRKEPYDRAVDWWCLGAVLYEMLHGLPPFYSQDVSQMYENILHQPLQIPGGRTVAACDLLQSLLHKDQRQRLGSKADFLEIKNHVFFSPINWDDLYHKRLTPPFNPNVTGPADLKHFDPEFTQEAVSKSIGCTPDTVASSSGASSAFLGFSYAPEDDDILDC
# PI3K (p110b/p85a)(m), sequence (Q8BTI9 whole entry): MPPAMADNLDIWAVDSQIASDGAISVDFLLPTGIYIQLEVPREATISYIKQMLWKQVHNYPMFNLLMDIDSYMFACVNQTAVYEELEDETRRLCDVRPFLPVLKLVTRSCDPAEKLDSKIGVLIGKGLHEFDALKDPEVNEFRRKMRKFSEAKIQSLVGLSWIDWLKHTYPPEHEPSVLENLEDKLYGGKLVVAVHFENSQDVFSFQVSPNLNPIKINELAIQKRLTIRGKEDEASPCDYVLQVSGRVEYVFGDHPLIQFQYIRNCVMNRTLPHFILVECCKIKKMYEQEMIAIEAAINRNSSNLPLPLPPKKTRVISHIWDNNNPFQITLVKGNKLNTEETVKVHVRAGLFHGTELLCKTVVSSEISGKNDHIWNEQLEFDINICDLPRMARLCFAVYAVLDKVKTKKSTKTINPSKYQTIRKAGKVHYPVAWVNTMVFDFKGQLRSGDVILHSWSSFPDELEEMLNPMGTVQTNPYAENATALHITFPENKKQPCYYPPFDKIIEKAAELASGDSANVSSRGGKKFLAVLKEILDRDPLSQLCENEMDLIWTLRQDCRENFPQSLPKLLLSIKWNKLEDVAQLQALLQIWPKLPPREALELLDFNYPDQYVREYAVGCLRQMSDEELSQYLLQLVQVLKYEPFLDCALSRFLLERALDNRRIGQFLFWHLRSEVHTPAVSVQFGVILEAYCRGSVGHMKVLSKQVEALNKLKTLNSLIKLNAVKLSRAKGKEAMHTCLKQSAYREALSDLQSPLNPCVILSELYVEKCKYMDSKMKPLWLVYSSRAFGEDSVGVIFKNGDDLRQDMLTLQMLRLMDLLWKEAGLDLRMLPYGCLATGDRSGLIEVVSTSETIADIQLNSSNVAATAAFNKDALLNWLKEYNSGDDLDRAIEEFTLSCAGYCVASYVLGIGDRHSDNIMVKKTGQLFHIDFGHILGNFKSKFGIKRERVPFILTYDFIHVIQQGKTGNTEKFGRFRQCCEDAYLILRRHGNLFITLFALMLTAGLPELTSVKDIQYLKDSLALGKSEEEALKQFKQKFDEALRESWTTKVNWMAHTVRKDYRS
# PI3K (p110b/p85a)(m), sequence (P26450 2-724 partner): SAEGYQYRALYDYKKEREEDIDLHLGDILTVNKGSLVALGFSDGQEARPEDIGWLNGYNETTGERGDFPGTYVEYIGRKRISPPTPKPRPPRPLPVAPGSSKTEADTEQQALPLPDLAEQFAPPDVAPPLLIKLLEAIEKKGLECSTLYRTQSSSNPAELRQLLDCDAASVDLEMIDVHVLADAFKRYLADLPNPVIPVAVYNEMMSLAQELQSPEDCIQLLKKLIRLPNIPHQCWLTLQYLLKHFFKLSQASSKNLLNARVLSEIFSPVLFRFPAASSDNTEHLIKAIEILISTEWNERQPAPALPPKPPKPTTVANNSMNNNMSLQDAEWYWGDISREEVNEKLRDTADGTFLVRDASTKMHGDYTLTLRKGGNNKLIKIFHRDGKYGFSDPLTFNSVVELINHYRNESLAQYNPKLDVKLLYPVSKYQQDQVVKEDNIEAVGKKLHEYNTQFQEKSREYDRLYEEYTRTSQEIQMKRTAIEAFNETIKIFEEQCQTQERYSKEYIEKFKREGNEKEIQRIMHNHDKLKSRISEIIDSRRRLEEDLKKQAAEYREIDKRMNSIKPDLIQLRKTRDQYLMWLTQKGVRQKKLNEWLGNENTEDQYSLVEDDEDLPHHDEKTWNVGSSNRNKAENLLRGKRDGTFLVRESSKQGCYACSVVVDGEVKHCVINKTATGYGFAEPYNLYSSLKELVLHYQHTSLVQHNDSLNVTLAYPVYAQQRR
# MLK1(h), sequence (P80192 whole entry): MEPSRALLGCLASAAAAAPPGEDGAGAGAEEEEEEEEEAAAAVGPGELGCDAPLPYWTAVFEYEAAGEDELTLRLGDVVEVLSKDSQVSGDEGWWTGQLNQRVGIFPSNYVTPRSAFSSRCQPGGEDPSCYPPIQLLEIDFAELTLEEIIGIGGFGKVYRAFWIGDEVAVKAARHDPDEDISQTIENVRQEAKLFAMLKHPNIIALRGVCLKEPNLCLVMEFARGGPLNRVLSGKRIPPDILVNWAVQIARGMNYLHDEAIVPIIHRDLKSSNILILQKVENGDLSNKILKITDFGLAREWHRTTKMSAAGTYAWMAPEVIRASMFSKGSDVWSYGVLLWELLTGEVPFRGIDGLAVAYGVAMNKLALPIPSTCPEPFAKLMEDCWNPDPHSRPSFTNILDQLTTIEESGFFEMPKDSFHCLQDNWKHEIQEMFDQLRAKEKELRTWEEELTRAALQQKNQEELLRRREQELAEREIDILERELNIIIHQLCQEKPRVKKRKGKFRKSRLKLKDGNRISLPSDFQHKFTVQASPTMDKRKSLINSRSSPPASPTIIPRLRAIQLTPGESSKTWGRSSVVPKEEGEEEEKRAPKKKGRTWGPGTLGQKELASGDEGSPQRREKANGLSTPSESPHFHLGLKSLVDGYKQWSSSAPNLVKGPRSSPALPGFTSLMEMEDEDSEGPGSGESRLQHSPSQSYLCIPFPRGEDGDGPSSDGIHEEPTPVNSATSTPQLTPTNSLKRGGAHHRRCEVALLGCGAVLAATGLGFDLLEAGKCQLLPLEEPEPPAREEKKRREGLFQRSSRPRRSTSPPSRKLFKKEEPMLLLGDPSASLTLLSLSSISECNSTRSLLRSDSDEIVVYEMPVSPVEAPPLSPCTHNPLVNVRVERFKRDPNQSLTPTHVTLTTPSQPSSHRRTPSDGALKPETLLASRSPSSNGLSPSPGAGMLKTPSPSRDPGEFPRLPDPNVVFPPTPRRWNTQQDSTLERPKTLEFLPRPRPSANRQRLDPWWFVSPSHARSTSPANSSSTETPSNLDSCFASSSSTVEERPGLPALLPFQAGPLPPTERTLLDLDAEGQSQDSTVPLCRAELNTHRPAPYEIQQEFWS
compound,measurement,setting,value
COc1ccc(OC)c(NS(=O)(=O)c2ccc(NC(=O)CCSc3ccc(C)cc3)cc2)c1 [Compound A41],decrease of active RAC1-GTP levels,"[1]; 10^-5 M, 1 h",more than 50%
same,IC50,"[1]; dose-response curve, Figure 5A",810 nM
same,IC50,"MDA-MB-468 Luc cells; dose-response curve, Figure 5B, read-out: IC50, colony formation",2100 nM
same,colony formation,MDA-MB-468 Luc cells; increasing concentrations,significantly inhibited colony formation in a dose-dependent manner
same,% inh.,Phosphodiesterase PDE3,9%
same,% inh.,Adenosine A2A,16%
same,% inh.,Dopamine D1,17%
same,% inh.,Muscarinic M2,12%
same,Activity(%),CLK4(h),102%
same,Activity(%),DDR2(h),114%
same,Activity(%),Flt4(h),92%
same,Activity(%),GSK3β(h),90%
same,Activity(%),MAP4K5(h),102%
same,Activity(%),MLK1(h),102%
same,Activity(%),SGK2(h),117%
same,Activity(%),SIK3(h),106%
same,Activity(%),PI3K (p110b/p85a)(m),101%
same,Activity(%),PIP4K2a(h),95%
same,Activity(%),PIP5K1g(h),104%
